According to patent US7087626B2, “Pyrrole derivatives as pharmaceutical agents” (Eli Lilly and Company, priority 2001, dated 2006):

These compounds were tested against T1, TGF-β Type II (RII WT) receptor (Homo sapiens, UniProt P37173) (assay: TGF-β Receptor II (RII WT) in vitro kinase reaction). Details: 6×-HIS cytoplasmic kinase domain, 4 uM ATP, 30° C., 40 min.
T1 construct: The 6×-HIS tagged cytoplasmic kinase domain of each receptor was expressed and purified from Sf9 insect cell lysates; 6xHis; made in house; host or cells: Sf9 insect cells
T1 sequence (P37173 244-544 limits assumed): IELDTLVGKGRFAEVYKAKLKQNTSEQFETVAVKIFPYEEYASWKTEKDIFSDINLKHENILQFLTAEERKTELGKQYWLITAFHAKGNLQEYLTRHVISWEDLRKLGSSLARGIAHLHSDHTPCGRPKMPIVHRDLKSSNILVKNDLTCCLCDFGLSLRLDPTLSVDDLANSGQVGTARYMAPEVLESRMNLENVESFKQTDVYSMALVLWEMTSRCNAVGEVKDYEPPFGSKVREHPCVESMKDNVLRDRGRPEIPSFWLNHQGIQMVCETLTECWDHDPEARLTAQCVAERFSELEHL
Format: biochemical
Experimental: (§1) TGF-β Receptor I and II Purification and in vitro Kinase Reactions
(§2) For TGF-β Type I (RIT204D) and Type II (RII WT) Receptors: The 6×-HIS tagged cytoplasmic kinase domain of each receptor was expressed and purified from Sf9 insect cell lysates as briefly described below:
(§3) Cell pellets after 48-72 hrs of infection were lysed in lysis buffer (LB: 50 mM Tris pH 7.5, 150 mM NaCl, 50 mM NaF, 0.5% NP40 with freshly added 20 mM, β-mercaptoethanol, 10 mM imidazole, 1 mM PMSF, 1×EDTA-free Complete Protease Inhibitor (Boehringer Mannheim).
Cell lysates were clarified: by centrifugation and […] filtered prior to purification by Ni/NTA affinity chromatography (Qiagen).
Equilibrate with 10 CV of LB, load sample, wash with 10 CV RIPA buffer (50 mM Tris pH 7.5, 150 mM NaCl, 1% NP40, 1 mM EDTA, 0.25% sodium deoxycholate, added fresh 20 mM β-mercaptoethanol, 1 mM PMSF), wash with 10 CV LB, wash with 10 CV 1×KB (50 mM Tris pH 7.5, 150 mM NaCl, 4 mM MgCl2, 1 mM NaF, 2 mM β-mercaptoethanol), elute with a linear gradient of 1×KB containing 200 mM Imidazole.
Both enzymes were approximately 90% pure and had autophosphorylation activity.
(§4) Reactions: 170-200 nM enzyme in 1×KB, compound dilution series in 1×KB/16% DMSO (20 uM to 1 nM final concentration with 4% DMSO final concentration), reactions started by adding ATP mix (4 uM ATP/1 uCi ^33P-[…]-ATP final concentrations) in 1×KB.
(§5) Reactions were incubated at 30° C. for 1 hr RIT204D or 40 min for RII WT. Reactions were stopped and quantitated using standard TCA/BSA precipitation onto Millipore FB glass fiber filter plates and by liquid scintillation counting on a MicroBeta JET.
CCC(C)CNC(=O)c1ccc2c(-c3c(-c4ccccn4)nn4c3CCC4)ccnc2c1 (stereo not shown) [4-(2-Pyridin-2-yl-5,6-dihydro-4H-pyrrolo[1,2-b]pyrazol-3-yl)-quinoline-7-carboxylic acid(2-methyl-butyl)-amide] was tested, and the IC50 was < 20 µM.
For COc1cccc(C2Cc3c(-c4ccnc5ccccc45)c(-c4ccccn4)nn3C2)c1 (stereo not shown) [4-[5-(3-Methoxy-phenyl)-2-pyridin-2-yl-5,6-dihydro-4H-pyrrolo[1,2-b]pyrazol-3-yl]-quinoline], the IC50 was < 20 µM.
OC1CCCc2c(-c3ccnc4ccccc34)c(-c3ccccn3)nn21 (stereo not shown) [2-Pyridin-2-yl-3-quinolin-4-yl-pyrazolo[1,5-a]piperidin-7-ol] was tested, and the IC50 was < 20 µM.
CN(C)CCCOc1ccc2c(-c3c(-c4ccccn4)nn4c3CCC4)ccnc2c1 [Dimethyl-{3-[4-(2-pyridin-2-yl-5,6-dihydro-4H-pyrrolo[1,2-b]pyrazol-3-yl)-quinolin-7-yloxy]-propyl}-amine] was tested, and the IC50 was < 20 µM.
With FC(F)(F)c1cccc(-c2nn3c(c2-c2ccnc4ccccc24)CCC3)c1 [4-[2-(3-Trifluoromethylphenyl)-5,6-dihydro-4H-pyrrolo[1,2-b]pyrazol-3-yl]-quinoline] the IC50 was < 20 µM.
In the case of CC(C)c1cc(-c2c(-c3ccccn3)nn3c2CCC3)c2ccc(Br)cc2n1 [7-Bromo-2-isopropyl-4-(2-pyridin-2-yl-5,6-dihydro-4H-pyrrolo[1,2-b]pyrazol-3-yl)-quinoline], the IC50 is reported as < 20 µM.
CCN(C)CCCOc1ccc2c(-c3c(-c4ccccn4)nn4c3CCC4)ccnc2c1 [Ethyl-methyl-{3-[4-(2-pyridin-2-yl-5,6-dihydro-4H-pyrrolo[1,2-b]pyrazol-3-yl)-quinolin-7-yloxy]-propyl}-amine] was tested, and the IC50 was < 20 µM.
O=C1OCCN1c1ccc2c(-c3c(-c4ccccn4)nn4c3CCC4)ccnc2c1 [3-[4-(2-Pyridin-2-yl-5,6-dihydro-4H-pyrrolo[1,2-b]pyrazol-3-yl)-quinolin-7-yl]-oxazolidin-2-one] was tested, and the IC50 was < 20 µM.
Nc1ccc2c(-c3c(-c4ccccn4)nn4c3CCC4)ccnc2c1 [4-(2-Pyridin-2-yl-5,6-dihydro-4H-pyrrolo[1,2-b]pyrazol-3-yl)-quinolin-7-ylamine] was tested, and the IC50 was < 20 µM.
With Cc1cccc(-c2nn3c(c2-c2ccnc4cc(C=CC(=O)O)ccc24)CCC3)n1 [3-{4-[2-(6-Methyl-pyridin-2-yl)-5,6-dihydro-4H-pyrrolo[1,2-b]pyrazol-3-yl]-quinolin-7-yl}-acrylic acid] the IC50 was < 20 µM.
ClCCCOc1ccc2c(-c3c(-c4ccccn4)nn4c3CCC4)ccnc2c1 [7-(3-Chloro-propoxy)-4-(2-pyridin-2-yl-5,6-dihydro-4H-pyrrolo[1,2-b]pyrazol-3-yl)-quinoline] was tested, and the IC50 was < 20 µM.
With O=C(Nc1ccccn1)c1ccc2c(-c3c(-c4ccccn4)nn4c3CCC4)ccnc2c1 [4-(2-Pyridin-2-yl-5,6-dihydro-4H-pyrrolo[1,2-b]pyrazol-3-yl)-quinoline-7-carboxylic acid pyridin-2-ylamide] the IC50 was < 20 µM.
In the case of CN(C)CCOc1ccc2c(-c3c(-c4ccccn4)nn4c3CCC4)ccnc2c1 [Dimethyl-{2-[4-(2-pyridin-2-yl-5,6-dihydro-4H-pyrrolo[1,2-b]pyrazol-3-yl)-quinolin-7-yloxy]-ethyl}-amine], the IC50 is reported as < 20 µM.
Cc1cccc(-c2nn3c(c2-c2ccnc4ccc(-c5ccccc5)cc24)CCC3)n1 [4-[2-(6-Methyl-pyridin-2-yl)-5,6-dihydro-4H-pyrrolo[1,2-b]pyrazol-3-yl]-6-phenyl-quinoline] was tested, and the IC50 was < 20 µM.
With Cc1cccc(-c2nn3c(c2-c2ccnc4cc(Br)ccc24)CCC3CO)n1 (stereo not shown) [[3-(7-Bromo-quinolin-4-yl)-2-(6-methyl-pyridin-2-yl)-5,6-dihydro-4H-pyrrolo[1,2-b]pyrazol-6-yl]3-methanol] the IC50 was < 20 µM.
O=C(NC1CC1)c1ccc2c(-c3c(-c4ccccn4)nn4c3CCC4)ccnc2c1 [4-(2-Pyridin-2-yl-5,6-dihydro-4H-pyrrolo[1,2-b]pyrazol-3-yl)-quinoline-7-carboxylic acid cyclopropylamide] was tested, and the IC50 was < 20 µM.

These compounds were tested against T2, TGF-β Type I (RIT204D) receptor (Homo sapiens, UniProt P36897, T204D) (assay: TGF-β Receptor I (RIT204D) in vitro kinase reaction). Details: 6×-HIS cytoplasmic kinase domain, 4 uM ATP, 30° C., 1 hr.
T2 construct: The 6×-HIS tagged cytoplasmic kinase domain of each receptor was expressed and purified from Sf9 insect cell lysates; 6xHis; made in house; host or cells: Sf9 insect cells
T2 sequence (P36897 148-503 T204D limits assumed): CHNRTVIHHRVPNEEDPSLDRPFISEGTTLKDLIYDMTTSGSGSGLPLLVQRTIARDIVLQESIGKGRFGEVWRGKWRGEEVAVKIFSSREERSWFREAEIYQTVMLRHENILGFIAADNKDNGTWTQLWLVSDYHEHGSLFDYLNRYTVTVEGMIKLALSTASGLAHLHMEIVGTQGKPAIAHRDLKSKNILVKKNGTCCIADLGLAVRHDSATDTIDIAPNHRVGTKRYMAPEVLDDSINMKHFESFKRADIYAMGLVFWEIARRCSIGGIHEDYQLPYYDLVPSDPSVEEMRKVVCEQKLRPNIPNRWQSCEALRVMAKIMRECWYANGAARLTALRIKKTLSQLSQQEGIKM
Format: biochemical
Experimental: as §1, §2, §3, §4, §5
In the case of CN(C)CCCCOc1cc(-c2c(-c3ccccn3)nn3c2CCC3)ccn1 [Dimethyl-{4-[4-(2-pyridin-2-yl-5,6-dihydro-4H-pyrrolo[1,2-b]pyrazol-3-yl)-pyridin-2-yloxy]-butyl}-amine], the IC50 is reported as < 20 µM.
For CC(=O)NCCCOc1ccc2c(-c3c(-c4ccccn4)nn4c3CCC4)ccnc2c1 [N-{3-[4-(2-Pyridin-2-yl-5,6-dihydro-4H-pyrrolo[1,2-b]pyrazol-3-yl)-quinolin-7-yloxy]-propyl}-acetamide], the IC50 was < 20 µM.
In the case of Clc1cccc(-c2nn3c(c2-c2ccnc4ccccc24)CCCC3)c1 [4-[2-(3-Chloro-phemyl)-4,5,6,7-tetrahydro-pyrazolo[1,5-alpyridin-3-y]-quinoline], the IC50 is reported as < 20 µM.
With COc1ccc(-c2c(-c3cccc(C)n3)nn3c2CCC3)cc1 [3-(4-Methoxyphenyl)-2-(6-methylpyridin-2-yl)-5,6-dihydro-4H-pyrrolo[1,2-b]pyrazole] the IC50 was < 20 µM.
For CN(C)CCCOc1ccc2c(-c3c(-c4ccccn4)nn4c3CCC4)ccnc2c1 [Dimethyl-{3-[4-(2-pyridin-2-yl-5,6-dihydro-4H-pyrrolo[1,2-b]pyrazol-3-yl)-quinolin-7-yloxy]-propyl}-amine], the IC50 was < 20 µM.
In the case of COC(=O)/C=C/c1ccc2c(-c3c(-c4cccc(C)n4)nn4c3CCC4)ccnc2c1 [3-{4-[2-(6-Methyl-pyridin-2-yl)-5,6-dihydro-4H-pyrrolo[1,2-b]pyrazol-3-yl]-quinolin-7-yl}-acrylic acid methyl ester], the IC50 is reported as < 20 µM.
For Cc1cccc(-c2nn3c(c2-c2ccc(F)cc2)CCC3)n1 [3-(4-Fluorophenyl)-2-(6-methylpyridin-2-yl)-5,6-dihydro-4H-pyrrolo[1,2-b]pyrazole], the IC50 was < 20 µM.
With CS(=O)(=O)c1ccc2c(-c3c(-c4ccccn4)nn4c3CCC4)ccnc2c1 [7-Methanesulfonyl-4-(2-pyridin-2-yl-5,6-dihydro-4H-pyrrolo[1,2-b]pyrazol-3-yl)-quinoline] the IC50 was < 20 µM.
In the case of CN(C)CCCN(C)C(=O)c1ccc2c(-c3c(-c4ccccn4)nn4c3CCC4)ccnc2c1 [4-(2-Pyridin-2-yl-5,6-dihydro-4H-pyrrolo[1,2-H]pyrazol-3-yl)-quinoline-7-carboxylic acid(3-dimethylamino-propyl)-methyl-amide], the IC50 is reported as < 20 µM.
With c1ccc(Cc2cccc(-c3nn4c(c3-c3ccnc5ccccc35)CCC4)n2)cc1 [4-[2-(6-Benzyl-pyridin-2-yl)-5,6-dihydro-4H-pyrrolo[1,2-b]pyrazol-3-yl]-quinoline] the IC50 was < 20 µM.
In the case of c1csc(-c2nn3c(c2-c2ccnc4ccccc24)CCC3)c1 [4-(2-Thiophen-2-yl-5,6-dihydro-4H-pyrrolo[1,2-b]pyrazol-3-yl)quinoline], the IC50 is reported as < 20 µM.
FC(F)(F)Oc1cccc(-c2nn3c(c2-c2ccnc4ccccc24)CCC3)c1 [4-[2-(3-Trifluoromethoxy-phenyl)-5,6-dihydro-4H-pyrrolo[1,2-b]pyrazol-3-yl]-quinoline] was tested, and the IC50 was < 20 µM.
CCCNC(=O)c1ccc2c(-c3c(-c4ccccn4)nn4c3CCC4)ccnc2c1 [4-(2-Pyridin-2-yl-5,6-dihydro-4H-pyrrolo[1,2-b]pyrazol-3-yl)-quinoline-7-carboxylic acid propylamide] was tested, and the IC50 was < 20 µM.
For CN(C)CCCNc1cc(-c2c(-c3ccccn3)nn3c2CCC3)ccn1 [N,N-Dimethyl-N′-[4-(2-pyridin-2-yl-5,6-dihydro-4H-pyrrolo[1,2-b]pyrazol-3-yl)-pyridin-2-yl]-propane-1,3-diamine], the IC50 was < 20 µM.
For Cc1cccc(-c2nn3c(c2-c2cccnc2)CCC3)n1 [2-(6-methyl-pyridin-2-yl)-3-pyridin-3-yl-5,6-dihydro-4H-pyrrolo[1,2-b]pyrazole], the IC50 was < 20 µM.
